# Measured values reported in US12281119B2, “Imidazo[2,1-f][1,2,4]triazin-4-amine derivatives as TLR7 agonist” (BEIGENE, LTD., priority 2019, dated 2025).
# Target: T1, human TLR7 (Homo sapiens, UniProt Q9NYK1)
# T1 sequence (Q9NYK1 27-1049): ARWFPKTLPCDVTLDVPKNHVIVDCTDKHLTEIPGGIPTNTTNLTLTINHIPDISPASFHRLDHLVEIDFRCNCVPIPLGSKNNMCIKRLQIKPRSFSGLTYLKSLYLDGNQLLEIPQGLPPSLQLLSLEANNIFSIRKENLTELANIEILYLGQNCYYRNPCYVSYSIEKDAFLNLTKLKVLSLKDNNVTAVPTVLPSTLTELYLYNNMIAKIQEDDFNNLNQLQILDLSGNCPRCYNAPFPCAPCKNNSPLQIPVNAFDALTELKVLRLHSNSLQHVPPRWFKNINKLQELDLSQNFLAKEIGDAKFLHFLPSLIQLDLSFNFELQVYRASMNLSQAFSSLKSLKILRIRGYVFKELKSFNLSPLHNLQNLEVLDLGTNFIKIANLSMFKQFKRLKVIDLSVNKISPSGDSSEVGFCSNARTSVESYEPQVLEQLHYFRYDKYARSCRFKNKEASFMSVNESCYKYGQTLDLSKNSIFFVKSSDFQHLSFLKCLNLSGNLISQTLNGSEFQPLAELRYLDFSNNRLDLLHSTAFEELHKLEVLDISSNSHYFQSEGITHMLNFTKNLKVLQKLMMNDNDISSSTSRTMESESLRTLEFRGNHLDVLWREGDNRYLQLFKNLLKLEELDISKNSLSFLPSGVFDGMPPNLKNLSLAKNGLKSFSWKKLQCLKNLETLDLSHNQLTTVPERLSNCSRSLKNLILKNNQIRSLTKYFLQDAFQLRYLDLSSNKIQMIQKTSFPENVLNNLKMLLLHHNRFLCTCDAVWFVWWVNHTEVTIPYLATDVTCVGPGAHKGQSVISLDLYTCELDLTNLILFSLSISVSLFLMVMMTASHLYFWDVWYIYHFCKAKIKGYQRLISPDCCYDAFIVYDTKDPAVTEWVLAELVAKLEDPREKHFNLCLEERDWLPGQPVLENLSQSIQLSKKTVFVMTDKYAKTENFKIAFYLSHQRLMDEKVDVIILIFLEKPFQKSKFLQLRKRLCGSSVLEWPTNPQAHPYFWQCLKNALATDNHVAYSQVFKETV
# Experiment: HEK293-Blue hTLR7 reporter assay (QUANTI-BLUE, SEAP readout)
# Assay type: cell-based
# Design: host or cells: HEK293 (HEK-Blue-hTLR7)
# Conditions: HEK-Blue-hTLR7 cells, QUANTI-BLUE assay (A1-A76), 24 hrs
# Experimental: HEK293-Blue hTLR7 Reporter Assay:
# HEK-Blue-hTLR7 cell line (Invivogen, Cat. No. hkb-htlr7) was designed so that the expression of the secreted embryonic alkaline phosphatase (SEAP) was induced by activating NF-κ and AP-1 via stimulating human TLR7 with TLR7 agonists.
# HEK-Blue-hTLR7 cells were seeded at a density of 4×10^4 cells/well in a volume of 180 μL in a 96-well plate in DMEM (Cat. No. 11965-092) supplemented with 10% (v/v) heat-inactivated fetal bovine serum (FBS) (Gibco, 10099-1441), 100 U/ml penicillin and 100 μg/ml streptomycin (Gibco, 15140122) containing […], […] and 10% (v/v) heat-inactivated fetal bovine serum. The cells were settled for 5 hrs, then treated with increasing amounts of tested compounds at 37° C. for 24 hrs. Then 20 μL of the supernatant from each well was incubated with 180 uL Quanti-blue substrate solution at 37° C. for 10-30 mins before the activity of the SEAP was determined at 620-655 nm using a spectrophotometer. The EC50 value for each compound was calculated with GraphPad Prism software using the sigmoidal dose-response function.
row,SMILES,EC50
1,"CCCCOc1nc(N)c2ncc(Cc3ccc(CN4CCCC4)cc3)n2n1 [Compound A1, 2-butoxy-7-(4-(pyrrolidin-1-ylmethyl)benzyl)imidazo[2,1-f][1,2,4]triazin-4-amine]",900 nM
2,"CCCCOc1nc(N)c2ncc(Cc3ccc(CN4CCN(C(=O)CN(C)C)CC4)cc3)n2n1 [Compound A39, 1-(4-(4-((4-amino-2-butoxyimidazo[2,1-f][1,2,4]triazin-7-yl)methyl)benzyl)piperazin-1-yl)-2-(dimethylamino)ethan-1-one]",543 nM
3,"CCCCOc1nc(N)c2ncc(Cc3ccc(OC4CCN(CC)C4)cc3F)n2n1 (centres unmarked) [Compound A60, 2-butoxy-7-(4-((1-ethylpyrrolidin-3-yl)oxy)-2-fluorobenzyl)imidazo[2,1-f][1,2,4]triazin-4-amine]",246 nM
4,"CCCCOc1nc(N)c2ncc(Cc3ccc(OCCCN(C)C)nc3)n2n1 [Compound A32, 2-butoxy-7-((6-(3-(dimethylamino)propoxy)pyridin-3-yl)methyl)imidazo[2,1-f][1,2,4]triazin-4-amine]",861 nM
5,"CCCCOc1nc(N)c2ncc(Cc3ccc(OCCCNC)cc3)n2n1 [Compound A63, 2-butoxy-7-(4-(3-(methylamino)propoxy)benzyl)imidazo[2,1-f][1,2,4]triazin-4-amine]",996 nM
6,"CCCCOc1nc(N)c2ncc(Cc3ccc(OC)cn3)n2n1 [Compound A50, 2-butoxy-7-((5-methoxypyridin-2-yl)methyl)imidazo[2,1-f][1,2,4]triazin-4-amine]",> 10000 nM
7,"CCCCOc1nc(N)c2ncc(Cc3cnc(OCCCN(C)C)c(Cl)c3)n2n1 [Compound A34, 2-butoxy-7-((5-chloro-6-(3-(dimethylamino)propoxy)pyridin-3-yl)methyl)imidazo[2,1-f][1,2,4]triazin-4-amine]",3370 nM
8,"CCCCOc1nc(N)c2ncc(Cc3cccc(CN4CCCC4)c3)n2n1 [Compound A11, 2-butoxy-7-(3-(pyrrolidin-1-ylmethyl)benzyl)imidazo[2,1-f][1,2,4]triazin-4-amine]",> 10000 nM
9,"CCCCOc1nc(N)c2ncc(Cc3cc(CN4CCCC4)ccc3F)n2n1 [Compound A26, 2-butoxy-7-(2-fluoro-5-(pyrrolidin-1-ylmethyl)benzyl)Imidazo[2,1-f][1,2,4]triazin-4-amine]",> 10000 nM
10,"CCCCOc1nc(N)c2ncc(Cc3ccccc3CN3CCOCC3)n2n1 [Compound A14, 2-butoxy-7-(2-(morpholinomethyl)benzyl)imidazo[2,1-f][1,2,4]triazin-4-amine]",> 10000 nM
11,"CCCCOc1nc(N)c2ncc(Cc3ccc(-c4ccc(CN5CCCC5)cc4)cc3)n2n1 [Compound A30, 2-butoxy-7-((4′-(pyrrolidin-1-ylmethyl)-[1,1′-biphenyl]-4-yl)methyl)imidazo[2,1-f][1,2,4]triazin-4-amine]",3520 nM
12,"CCCCOc1nc(N)c2ncc(Cc3cccc(CN4CCN(C)CC4)c3)n2n1 [Compound A13, 2-butoxy-7-(3-((4-methylpiperazin-1-yl)methyl)benzyl)imidazo[2,1-f][1,2,4]triazin-4-amine]",> 10000 nM
13,"CCCCNc1nc(N)c2ncc(Cc3ccc(CN4CCCC4)cc3)n2n1 [Compound A67, N2-butyl-7-(4-(pyrrolidin-1-ylmethyl)benzyl)imidazo[2,1-f][1,2,4]triazine-2,4-diamine]",585 nM
14,"Nc1nc(OCCCC(F)(F)F)nn2c(Cc3ccc(CN4CCCC4)cc3)cnc12 [Compound A69, 7-(4-(pyrrolidin-1-ylmethyl)benzyl)-2-(4,4,4-trifluorobutoxy)imidazo[2,1-f][1,2,4]triazin-4-amine]",1240 nM
15,"CCCCOc1nc(N)c2ncc(Cc3cnc(OCC(C)(C)CN(C)C)c(Cl)c3)n2n1 [Compound A45, 2-butoxy-7-((5-chloro-6-(3-(dimethylamino)-2,2-dimethylpropoxy)pyridin-3-yl)methyl)imidazo[2,1-f][1,2,4]triazin-4-amine]",3840 nM
16,"CCCCOc1nc(N)c2ncc(Cc3ccc(C4CCN(C)C4)cc3)n2n1 (centres unmarked) [Compound A66, 2-butoxy-7-(4-(1-methylpyrrolidin-3-yl)benzyl)imidazo[2,1-f][1,2,4]triazin-4-amine]",387 nM
17,"CCCCOc1nc(N)c2ncc(Cc3cccc(CN4CCOCC4)c3)n2n1 [Compound A12, 2-butoxy-7-(3-(morpholinomethyl)benzyl)imidazo[2,1-f][1,2,4]triazin-4-amine]",> 10000 nM
18,"CCCCOc1nc(N)c2ncc(Cc3ccc(CCN4CCCC4)cc3)n2n1 [Compound A42, 2-butoxy-7-(4-(2-(pyrrolidin-1-yl)ethyl)benzyl)imidazo[2,1-f][1,2,4]triazin-4-amine]",1380 nM
19,"CCCCOc1nc(N)c2ncc(Cc3ccc(F)c(OCCCN(C)C)c3)n2n1 [Compound A24, 2-butoxy-7-(3-(3-(dimethylamino)propoxy)-4-fluorobenzyl)imidazo[2,1-f][1,2,4]triazin-4-amine]",> 10000 nM
20,"CCCCOc1nc(N)c2ncc(Cc3ccc(OCCN(C)C(C)=O)nc3)n2n1 [Compound A59, N-(2-((5-((4-amino-2-butoxyimidazo[2,1-f][1,2,4]triazin-7-yl)methyl)pyridin-2-yl)oxy)ethyl)-N-methylacetamide]",> 10000 nM
21,"CCCCOc1nc(N)c2ncc(Cc3ccc(OCCCN4CCCCC4)cc3)n2n1 [Compound A21, 2-butoxy-7-(4-(3-(piperidin-1-yl)propoxy)benzyl)imidazo[2,1-f][1,2,4]triazin-4-amine]",2870 nM
22,"CCCCOc1nc(N)c2ncc(Cc3ccc(CN4CCC(N(C)C)C4)cc3)n2n1 (centres unmarked) [Compound A44, 2-butoxy-7-(4-((3-(dimethylamino)pyrrolidin-1-yl)methyl)benzyl)imidazo[2,1-f][1,2,4]triazin-4-amine]",1010 nM
23,"CCCCOc1nc(N)c2ncc(Cc3ccc(OCCCN(C)C)cc3F)n2n1 [Compound A36, 2-butoxy-7-(4-(3-(dimethylamino)propoxy)-2-fluorobenzyl)imidazo[2,1-f][1,2,4]triazin-4-amine]",880 nM
24,"CCCCOc1nc(N)c2ncc(Cc3ccc(OCCN)nc3)n2n1 [Compound A37, 7-((6-(2-aminoethoxy)pyridin-3-yl)methyl)-2-butoxyimidazo[2,1-f][1,2,4]triazin-4-amine]",> 10000 nM
25,"CCCCOc1nc(N)c2ncc(Cc3cccc(OC)n3)n2n1 [Compound A51, 2-butoxy-7-((6-methoxypyridin-2-yl)methyl)imidazo[2,1-f][1,2,4]triazin-4-amine]",> 10000 nM
26,"COCCOc1nc(N)c2ncc(Cc3cccc(CN4CCCC4)c3)n2n1 [Compound A17, 2-(2-methoxyethoxy)-7-(3-(pyrrolidin-1-ylmethyl)benzyl)imidazo[2,1-f][1,2,4]triazin-4-amine]",> 10000 nM
27,"CCCCOc1nc(N)c2ncc(Cc3ccc4c(c3)CN(C(C)C)CC4)n2n1 [Compound A9, 2-butoxy-7-((2-isopropyl-1,2,3,4-tetrahydroisoquinolin-7-yl)methyl)imidazo[2,1-f][1,2,4]triazin-4-amine]",> 10000 nM
28,"CCCCOc1nc(N)c2ncc(C(C)c3ccc(CN4CCCC4)cc3)n2n1 (centres unmarked) [Compound A75, 2-butoxy-7-(1-(4-(pyrrolidin-1-ylmethyl)phenyl)ethyl)imidazo[2,1-f][1,2,4]triazin-4-amine]",> 10000 nM

# Same assay, conditions: HEK-Blue-hTLR7 cells, QUANTI-BLUE assay (C1-C6), 24 hrs
row,SMILES,EC50
1,"CCCCOc1nc(N)n2ncc(Cc3ccc(CN4CCCC4)cc3)c2n1 [Compound C2, 2-butoxy-8-(4-(pyrrolidin-1-ylmethyl)benzyl)pyrazolo[1,5-a][1,3,5]triazin-4-amine]",> 10000 nM
